According to patent US20250177381A1 (SHANGHAI YONSUN BIOTECHNOLOGY CO., LTD., priority 2022, published 2025):
In brackets after ≈: the same amount, converted by molar mass. Counter-ions that a name gives are not always drawn. Like-named read-outs stand apart in the source and are kept apart here. Values belong to the molecule of their own block, whether it stands above or below them.

Assays:
Format in all cases: physicochemical
[1] = Solubility in media with different pH values; details: shaken 24 h; for Solubility pH 3 / Solubility pH 4 / Solubility pH 5 / Solubility pH 6: acetate buffer; for Solubility pH 3 / Solubility pH 4 / Solubility pH 5 / Solubility pH 6 / Solubility pH 7 / Solubility pH 7.4 / Solubility pH 8 / Solubility pH 9 / Solubility Water: 37° C.; for Solubility pH 7 / Solubility pH 7.4 / Solubility pH 8 / Solubility pH 9 / solubility at 24 h: phosphate buffer; for solubility at 24 h: 37 °C, thermodynamic from solid
Protocol: The mixtures were shaken at 37° C. for 24 h and filtered through a 0.45 μm aqueous-phase filter membranes. The filtrates were collected for solubility determination by high performance liquid chromatography. pH 3, pH 4, pH5 and pH 6 represent acetate buffer solutions, and pH 7, pH 7.4, pH 8 and pH 9 represent phosphate buffer solutions.

[2] = Crystal form stability of solid salt forms (XRPD); details: 60° C., Day 10, listed as crystal form A of cariprazine mono-1-hydroxy-2-naphthoate dihydrate
Protocol: (4) The XRPD measurements were conducted on a Bruker model D8 Advance X-ray powder diffractometer using a round zero background single crystal silicon sample stage. CuKα rays were used as a light source in the test, and the scanning parameters are as follows: voltage: 40 kv; current: 40 mA; scanning range: 3°-45°; scanning step size: 0.02°; scanning mode: continuous scanning.

[3] = Hydrochloride dissociation study (XRPD of residues); details: aqueous media of pH 6, pH 7, pH 7.4, pH 8, pH 9; shaken at 37° C. for 4 h
Protocol: The mixtures were shaken at 37° C. for 4 h and centrifuged.

[4] = listed as Crystal form A of cariprazine mono-1-hydroxy-2-naphthoate dihydrate (Example 1), dihydrate
[5] = listed as Crystal form A of cariprazine bis-1-hydroxy-2-naphthoate hydrate (Example 5), hydrate
[6] = listed as Amorphous cariprazine embonate (Example 7)

Solubility pH 3 [1]: 102.65 μg/mL
Solubility pH 4 [1]: 82.64 μg/mL
Solubility pH 5 [1]: 81.47 μg/mL
Solubility pH 6 [1]: 36.38 μg/mL
Solubility pH 7 [1]: 4.79 μg/mL
Solubility pH 7.4 [1]: 1.53 μg/mL
Solubility pH 8 [1]: 0.51 μg/mL
Solubility pH 9 [1]: 0.31 μg/mL
Solubility Water [1]: 65.28 µg/mL (≈ 153 µM)
SMILES: CN(C)C(=O)NC1CCC(CCN2CCN(c3cccc(Cl)c3Cl)CC2)CC1 (centres unmarked) [Crystal form C of cariprazine mono-1-hydroxy-2-naphthoate (E]

Solubility pH 3 [1, 4]: 166.74 μg/mL
Solubility pH 4 [1, 4]: 72.47 μg/mL
Solubility pH 5 [1, 4]: 72.69 μg/mL
Solubility pH 6 [1, 4]: 41.95 μg/mL
Solubility pH 7 [1, 4]: 5.02 μg/mL
Solubility pH 7.4 [1, 4]: 1.51 μg/mL
Solubility pH 8 [1, 4]: 0.62 μg/mL
Solubility pH 9 [1, 4]: 0.45 μg/mL
Solubility Water [1, 4]: 60.01 µg/mL
SMILES: CN(C)C(=O)NC1CCC(CCN2CCN(c3cccc(Cl)c3Cl)CC2)CC1 (centres unmarked) [cariprazine mono-1-hydroxy-2-naphthoate dihydrate]
Crystal form results, High temperature [2]: change into the crystal form C of cariprazine mono-1-hydroxy-2-naphthoate

Solubility pH 3 [1, 5]: 36.75 μg/mL
Solubility pH 4 [1, 5]: 65.87 μg/mL
Solubility pH 5 [1, 5]: 20.69 μg/mL
Solubility pH 6 [1, 5]: 15.24 μg/mL
Solubility pH 7 [1, 5]: 6.13 μg/mL
Solubility pH 7.4 [1, 5]: 3.00 μg/mL
Solubility pH 8 [1, 5]: 1.14 μg/mL
Solubility pH 9 [1, 5]: 0.94 μg/mL
Solubility Water [1, 5]: 55.20 µg/mL
SMILES: CN(C)C(=O)NC1CCC(CCN2CCN(c3cccc(Cl)c3Cl)CC2)CC1 (centres unmarked) [cariprazine bis-1-hydroxy-2-naphthoate hydrate]

Solubility pH 8 [1]: 0.4 μg/mL
Solubility Water [1]: 179.94 µg/mL (≈ 421 µM)
SMILES: CN(C)C(=O)NC1CCC(CCN2CCN(c3cccc(Cl)c3Cl)CC2)CC1 (centres unmarked) [Cariprazine (commercially available), Cariprazine, reference compound]

Solubility pH 3 [1, 6]: 151.2 μg/mL
Solubility pH 4 [1, 6]: 19.1 μg/mL
Solubility pH 5 [1, 6]: 17.7 μg/mL
Solubility pH 6 [1, 6]: 19.0 μg/mL
Solubility pH 7 [1, 6]: 18.8 μg/mL
Solubility pH 7.4 [1, 6]: 9.9 μg/mL
Solubility pH 8 [1, 6]: 4.6 μg/mL
Solubility pH 9 [1, 6]: 4.2 μg/mL
Solubility Water [1, 6]: 10.4 µg/mL (≈ 24.3 µM)
SMILES: CN(C)C(=O)NC1CCC(CCN2CCN(c3cccc(Cl)c3Cl)CC2)CC1 (centres unmarked) [Amorphous cariprazine embonate, cariprazine embonate]

Dissociation in aqueous media (XRPD of residue) [3]: dissociated into cariprazine free base
Solubility pH 3 [1]: 12302.45 μg/mL
Solubility pH 5 [1]: 1081.35 μg/mL
solubility at 24 h ([1]; pH 7, aqueous buffer, read-out: Solubility pH 7): 9.41 µg/mL
solubility at 24 h ([1]; pH 7.4, aqueous buffer, read-out: Solubility pH 7.4): 2.82 µg/mL
solubility at 24 h ([1]; pH 8, aqueous buffer, read-out: Solubility pH 8): 0.91 µg/mL
solubility at 24 h ([1]; pH 9, aqueous buffer, read-out: Solubility pH 9): 0.35 µg/mL
Solubility Water [1]: 10935.14 µg/mL
SMILES: CN(C)C(=O)N[C@H]1CC[C@H](CCN2CCN(c3cccc(Cl)c3Cl)CC2)CC1 [cariprazine hydrochloride, reference compound]
